Data from ChEMBL document CHEMBL4257466, “The use of matched molecular series networks for cross target structure activity relationship translation and potency prediction” (Medchemcomm, 2017).

Target: RNA-directed RNA polymerase (Hepacivirus hominis, UniProt O39930)
Assay: Inhibition of HCV RNA polymerase

RNA-directed RNA polymerase, sequence (O39930 whole entry): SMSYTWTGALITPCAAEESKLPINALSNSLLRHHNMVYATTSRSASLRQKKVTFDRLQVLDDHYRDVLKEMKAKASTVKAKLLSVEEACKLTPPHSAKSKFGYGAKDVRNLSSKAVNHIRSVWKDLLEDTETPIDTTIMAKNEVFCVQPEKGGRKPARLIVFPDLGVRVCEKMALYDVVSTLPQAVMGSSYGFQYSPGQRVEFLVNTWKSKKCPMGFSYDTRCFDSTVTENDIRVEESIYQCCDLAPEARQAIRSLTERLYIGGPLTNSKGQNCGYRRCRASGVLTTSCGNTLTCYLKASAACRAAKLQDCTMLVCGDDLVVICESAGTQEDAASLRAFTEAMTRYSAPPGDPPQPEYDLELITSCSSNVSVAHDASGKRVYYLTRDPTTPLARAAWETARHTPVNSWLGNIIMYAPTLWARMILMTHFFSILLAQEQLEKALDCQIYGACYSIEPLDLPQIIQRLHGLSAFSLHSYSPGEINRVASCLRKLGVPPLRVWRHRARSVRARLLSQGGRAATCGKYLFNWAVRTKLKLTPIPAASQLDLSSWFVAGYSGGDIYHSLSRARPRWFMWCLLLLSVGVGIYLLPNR

Row | SMILES | IC50 [µM]
1 | CNC(=O)c1c(-c2ccc(F)cc2)oc2nc(CNC(C)=O)c(C3CC3)cc12 | 0.631
2 | CNC(=O)c1c(-c2ccc(F)cc2)oc2nc(CN)c(C3CC3)cc12 | 6.31

Continued by falling IC50, values first:

Row | IC50 [µM] | SMILES
3 | 3.16 | CNC(=O)c1c(-c2ccc(F)cc2)oc2nc(CNC(=O)COC)c(C3CC3)cc12
4 | 2.51 | CNC(=O)c1c(-c2ccc(F)cc2)oc2nc(CNC(=O)C3CCOC3)c(C3CC3)cc12 (stereo not given)
5 | 0.501 | CNC(=O)c1c(-c2ccc(F)cc2)oc2nc(CNS(C)(=O)=O)c(C3CC3)cc12
